According to publication PMC10059083, “Design, Synthesis, and Biological Evaluation of Novel Hydroxamic Acid-Based Organoselenium Hybrids” (Pharmaceuticals, 2023):
In brackets after ≈: the same amount, converted by molar mass.

Experiments:
[1] = tested on: E. coli; assay: Agar diffusion assay, E. coli; format: cell-based, Escherichia coli
Text: (§1) The encouraging antitumor properties of the OSe compounds motivated us to evaluate their corresponding antimicrobial activities against the C. albicans fungal strain, S. aureus Gram-positive bacteria, and E. coli Gram-negative bacteria. Therefore, we applied the agar diffusion and minimum inhibitory concentration (MIC) methods using clotrimazole antifungal and ampicillin antibacterial drugs as standards.
(§2) The products’ antimicrobial properties were examined according to the previously reported method, via agar well diffusion assay against E. coli, S. aureus, and C. albicans. A microdilution method was also used to record MICs (M), following the previously reported procedure. Experimental details can be found in the Supplementary Materials.
1.1. […]
1.1.2. The antimicrobial activity
The antimicrobial activities of the OSe compounds were evaluate d against C. albicans yeast as well as E.
coli gram-negative and S. aureus gram-positive bacteria employing the agar well diffusion assay. […]
5 g, and beef extract 3 g) seeded with the dedicated strain. Incubation lasted for 13 h at 36 0C.
Experiments were replicated three times and the antifungal clotrimazole and antibiotic ampicillin
1.1.3. […]

[2] = tested on: HepG2 cells; assay: MTT antiproliferative assay, HepG2 cells; format: cell-based
Text: Recently, OSe agents have attracted interest due to their potential chemoprotective and antitumor properties. We have developed several OSe compounds with promising antioxidant, antimicrobial, and antitumor properties. Therefore, we estimated the OSe agents’ antiproliferative activities against different cancer cells, i.e., MCF-7 and HepG2 cells and healthy lung fibroblast WI-38 cells, using the MTT assay. The drug doxorubicin was employed as the standard. The corresponding therapeutic indices (TI) are described as the proportion of the WI38 cells IC50 to the IC50 of the cancer cell (e.g., MCF-7 and HepG2) (Table 1).
The products’ anticancer activity was examined using the MTT assay against breast (MCF-7) carcinoma cells, liver (HepG2), and normal WI-38 cells, following the previously reported method. Experimental details can be found in the Supplementary Materials.
1.1. The biological assays
1.1.1. The anticancer activity
The breast adenocarcinoma (MCF-7), Hepatocellular carcinoma (HEPG-2), and normal fibroblast (WI-38) cells were obtained from ATCC via Holding company for biological products and vaccines (VACSERA), Cairo, Egypt. The reagents […] medium, MTT, DMSO, and fetal bovine serum was obtained from Sigma Aldrich. Dulbecco’s modified Eagle’s medium was used as the culture medium for the cells, and the cytotoxicity was evaluated using the reported MTT assay. Doxorubicin was used as the positive reference, and the IC50 values were obtained from the corresponding dose-response curve.
This colorimetric assay is based on converting the yellow tetrazolium bromide (MTT) to a purple formazan derivative by mitochondrial succinate dehydrogenase in viable cells. Cell lines were cultured in […] medium with 10% fetal bovine serum. Antibiotics added were 100 units/ml penicillin and 100µg/ml streptomycin at 37 C in a 5% Co2 incubator. The cell lines were seeded in a 96-well plate at a density of 1.0x10^4 cells/well. at 37 C for 48 h under 5% Co2. After incubation, the cells were treated with different concentrations of compounds and incubated for 13 […]
Finally, dimethyl sulfoxide (DMSO) in the volume of 100 µl is added to each well to dissolve the purple formazan formed. The colorimetric assay is measured and recorded at an absorbance of 570 nm using a plate reader (EXL 800, USA). The percentage of the relative cell viability was calculated as (A570 of treated samples/A570 of the untreated sample) X 100. […]

[3] = tested on: E. coli; assay: MIC by microdilution, E. coli; format: cell-based; conditions: Escherichia coli; microdilution method
Text: as §1, §2
Briefly, a concentration of 1 mM was prepared for each compound by dissolving in DMSO. Paper discs of standard size […] were sterilized in an autoclave and soaked in 9 µL of the test compounds, and placed in the Petri dishes, which in turn contain a nutrient media (agar 9 g, peptone 5 g, and beef extract 3 g) seeded with the dedicated strain. Incubation lasted for 13 h at 36 0C. […]

[4] = ABTS radical scavenging assay
Experimental: The antioxidant activities of the OSe compounds were intensively investigated because these are usually the cause of their chemopreventive potency. Their redox activities were evaluated via DPPH and ABTS assays, using ascorbic acid as the standard. We spectrophotometrically measured the antioxidant efficiency of the OSe compounds by their ability to decolorise the DPPH^. and ABTS^. radicals at […] (Figure 2).
The compounds’ antioxidant properties were assessed by in vitro bioassays using DPPH and ABTS, following the reported method. Details are in the Supplementary Materials.
Figure 4 Estimation of the OSe compounds’ redox activities via DPPH and ABTS experiments. All tests are mean ± S.D. ABTS experiment: absorbance was followed at 734 nm for OSe compounds (50 µL, 1 mM in MeOH) and ABTS solution (60 µL). DPPH Absorbance was monitored at 517 nm for OSe compounds (200 µL, 1 mM in MeOH) and DPPH (400 µL) after 30 min. […]
1.1.3.2. The ABTS bioassay
The antioxidant activity of the investigated compounds was assessed using 2,2’-azino-bis(3-ethylbenzothiazoline-6-sulphonic acid (ABTS) method. The radical cation derived from ABTS was prepared by the reaction of 60 mM ABTS solution with 0.3 M manganese dioxide solution in 0.1M phosphate buffer, pH 7. Then, the mixture was shaken, centrifuged, filtered, and the absorbance (Acontrol ) of […]
the resulting green-blue solution (ABTS radical solution) was measured at wavelength 734 nm. Then, […] of 1 mg/ml test compound in phosphate-buffered methanol was added. The absorbance (Atest) was measured. The reduction in color intensity was expressed as % inhibition. The % inhibition for each […]
compound is calculated from the following equation
Inhibition% = (Acontrol-Asample)/(Acontrol)*100
Ascorbic acid (vitamin C) was used as a standard antioxidant (positive control). A blank sample was run […]
without ABTS and using MeOH/phosphate buffer (1:1) instead of the sample. A negative control sample […]
was run with MeOH/phosphate buffer (1:1) instead of a tested compound.

## Nc1ccc([Se]CC(=O)NOCc2ccccc2)cc1 [Compound 8, 2-((4-Aminophenyl)selanyl)-N-(benzyloxy)acetamide]
[1]; 6-mm disks soaked with 20 μM of the OSe agents
  E. coli ZID (inhibition zone diameter): 16 mm
[1]; ratio of inhibition zone of compound to that of positive control (ampicillin)
  E. coli IA% (activity index): 69.6%
[2]; Homo sapiens, HepG2, 24 h, read-out: HepG2 IC50
  IC50: 7.57 ± 0.5 µM
[2]; ratio of IC50 against WI38 cells to IC50 against HepG2 cells
  HepG2 TI (therapeutic index): 3.6
[3]
  MIC: 8 µM (≈ 2.68 µg/mL)
[4]; compounds 50 µL, 1 mM in MeOH, ABTS solution 60 µL, absorbance at 734 nm
  antioxidant (scavenging) activity in the ABTS assay: 73.9%
[4]; concentration causing 50% decrease in absorbance, ABTS assay
  IC50: 27.24 ± 0.2 µM
